Molecules are shown by their SMILES.

For the first assay, the target named is T1, oxidative stress transporter (Homo sapiens, UniProt Q9UPY5).
T1 sequence (Q9UPY5 1-501): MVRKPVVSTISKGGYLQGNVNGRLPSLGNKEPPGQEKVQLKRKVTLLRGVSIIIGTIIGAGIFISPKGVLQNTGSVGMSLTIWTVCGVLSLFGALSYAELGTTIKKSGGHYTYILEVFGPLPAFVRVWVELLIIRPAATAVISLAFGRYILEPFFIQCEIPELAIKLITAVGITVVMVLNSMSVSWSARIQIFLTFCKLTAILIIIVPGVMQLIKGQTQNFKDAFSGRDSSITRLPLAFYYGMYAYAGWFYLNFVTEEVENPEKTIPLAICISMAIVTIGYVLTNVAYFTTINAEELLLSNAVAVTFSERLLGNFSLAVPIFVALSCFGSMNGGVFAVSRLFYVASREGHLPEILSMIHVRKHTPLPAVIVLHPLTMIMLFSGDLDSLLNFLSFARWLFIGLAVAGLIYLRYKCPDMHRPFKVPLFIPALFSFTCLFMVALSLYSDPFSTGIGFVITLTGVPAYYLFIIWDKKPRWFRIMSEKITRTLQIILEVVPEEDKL
T1 sequence (P08195 1-529 partner): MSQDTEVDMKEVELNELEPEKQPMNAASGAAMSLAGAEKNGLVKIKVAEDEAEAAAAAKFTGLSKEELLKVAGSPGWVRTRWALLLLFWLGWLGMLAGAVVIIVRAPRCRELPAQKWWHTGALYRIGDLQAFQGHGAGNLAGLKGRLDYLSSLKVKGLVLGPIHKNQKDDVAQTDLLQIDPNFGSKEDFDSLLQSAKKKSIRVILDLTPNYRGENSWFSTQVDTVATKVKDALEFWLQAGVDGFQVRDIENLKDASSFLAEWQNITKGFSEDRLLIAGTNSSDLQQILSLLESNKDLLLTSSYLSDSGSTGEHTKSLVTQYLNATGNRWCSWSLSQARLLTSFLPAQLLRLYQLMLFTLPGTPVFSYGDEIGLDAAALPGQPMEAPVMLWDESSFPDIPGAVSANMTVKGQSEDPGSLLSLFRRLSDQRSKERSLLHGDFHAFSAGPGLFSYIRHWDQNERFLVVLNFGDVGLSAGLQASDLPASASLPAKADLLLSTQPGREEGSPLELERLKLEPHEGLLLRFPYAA
Assay: not given
To be noted: as reported in U.S. patent application Ser. No. 13/234,210; cited from earlier work.
Consider `N[C@@H](CCCCCC(=O)O)C(=O)O` [aminosuberic acid], for which the “uptake via the oxidative stress transporter” value is on record as “good uptake”.

Another assay addresses T2, cystine/glutamate transporter (Homo sapiens, UniProt Q9UPY5).
T2 construct: endogenous in cells; host or cells: SKOV3 cells treated with 100 uM DEM (the paragraph also says 'DEM treated EL4 cells')
T2 sequence (Q9UPY5 1-501): T1 sequence (Q9UPY5 1-501)
T2 sequence (P08195 2-529 partner): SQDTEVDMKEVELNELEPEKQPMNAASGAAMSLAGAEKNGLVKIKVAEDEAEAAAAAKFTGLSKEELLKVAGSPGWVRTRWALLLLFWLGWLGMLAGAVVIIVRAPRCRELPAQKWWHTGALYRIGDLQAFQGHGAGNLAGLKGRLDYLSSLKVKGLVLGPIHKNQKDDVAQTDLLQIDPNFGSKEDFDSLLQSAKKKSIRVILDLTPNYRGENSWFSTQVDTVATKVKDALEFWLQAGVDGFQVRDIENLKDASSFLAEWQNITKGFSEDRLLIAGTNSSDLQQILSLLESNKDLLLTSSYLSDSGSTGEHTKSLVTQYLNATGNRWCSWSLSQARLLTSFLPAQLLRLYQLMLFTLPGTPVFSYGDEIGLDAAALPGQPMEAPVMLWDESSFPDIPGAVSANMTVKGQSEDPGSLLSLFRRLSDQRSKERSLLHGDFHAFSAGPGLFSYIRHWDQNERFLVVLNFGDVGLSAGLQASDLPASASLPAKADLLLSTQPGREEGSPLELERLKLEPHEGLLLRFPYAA
In words: inhibition of 3H-L-Glu uptake in DEM treated cells. In kind it is cell-based. To be noted: 0.5 h; 1 mM agent; 30 minutes uptake at room temperature; cells pretreated with 100 μM DEM overnight; triplicate; lower = inhibition of the transporter; read-out: % of contro1 3H-Glu uptake. The method, then: Following are non-limiting examples used to illustrate various embodiments of the imaging agents and methods of use. As such Table 1 provides examples of the non-labelled analog of the final product. Also provided are measurements of inhibition response of ^3H-L-GLU (control) uptake in DEM treated EL4 cells. As such 96 well plate were seeded with 100,000 SKOV3 cells/well in complete growth media (McCoy's+10% Fetal Bovine Serum(FBS)) and incubated overnight at 37° C. The media was changed to 100 μM DEM and again incubated overnight at 37° C. Wash 1× with Hank's Balanced Salt Solution (HBSS) Room Temperature and assayed 50 μl of each agent (Table 1) in triplicate by incubating for 30 minutes (uptake) at room temperature. It was then washed twice with HBSS and 200 μl MicroScint20 added for counting. The protocol used 200 uCi 3H-Glu per well. The mix and agent and ^3H-Glu provided a final concentration of 200 uCi and 1 mM agent. […] As such lower response is indicative of inhibition of the transporter. As such numbers below approximately 30% is equivalent to 70% inhibition and are considered good candidates for pharmaceutical agents.
As to `N[C@@H](CCC(=O)N1C[C@@H](Oc2ccccc2)C[C@H]1C(=O)O)C(=O)O` [1j], the remaining activity at 1000 µM was determined as 33%.
For the molecule `CCOc1cccc(CO[C@@H]2C[C@@H](C(=O)O)N(C(=O)CC[C@H](N)C(=O)O)C2)c1` [1q], the remaining activity at 1000 µM turned out to be 14.5%.
Still for that read-out and setting: with `N[C@@H](CCC(=O)N1C[C@@H](O)C[C@H]1C(=O)O)C(=O)O` [1f] the figure was 30.8%; with `N[C@@H](CCC(=O)N1C[C@H](OCc2ccccc2)C[C@H]1C(=O)O)C(=O)O` [1m], 14.9%.
In the case of `N[C@@H](CCC(=O)N1CCC[C@@H]1C(=O)O)C(=O)O` [1b], the remaining activity at 1000 µM was determined as 84%.
The same measure, in the same setting: the result for `N[C@@H](CCC(=O)N1C[C@H](c2ccccc2)C[C@H]1C(=O)O)C(=O)O` [1h] reads 52.3%; that for `N[C@@H](CCC(=O)N1C[C@H](O)C[C@@H]1C(=O)O)C(=O)O` [1g], 94.7%; that for `N[C@@H](CCC(=O)N1CCC[C@H]1C(=O)O)C(=O)O` [1a], 46.3%.
Regarding `N[C@@H](CCC(=O)N1C[C@H](OCc2ccccc2)CC1C(=O)O)C(=O)O` (some centres unmarked) [1p], the remaining activity at 1000 µM was 50%.
Same read-out and setting: the result for `N[C@@H](CCC(=O)N1C[C@@H](c2ccccc2)C[C@H]1C(=O)O)C(=O)O` [1i] reads 46.2%; that for `N[C@@H](CCC(=O)N1C[C@H](Cc2ccccc2)C[C@H]1C(=O)O)C(=O)O` [1k], 30.9%.
On the same count and under the same terms, the result for `N[C@@H](CCC(=O)N1C[C@H](Oc2ccccc2)C[C@H]1C(=O)O)C(=O)O` [1l] reads 36.6%; that for `N[C@@H](CCC(=O)N1C[C@H](OCc2ccc(COCCF)cc2)C[C@H]1C(=O)O)C(=O)O` [1r], 10.1%; that for `N[C@@H](CCC(=O)N1C[C@@H](OCc2ccccc2)CC1C(=O)O)C(=O)O` (some centres unmarked) [1o], 43.2%.
Same read-out and setting: with `N[C@@H](CCC(=O)N1C[C@@H](O)C[C@@H]1C(=O)O)C(=O)O` [1e] the figure was 74%; with `N[C@@H](CCC(=O)N1C[C@@H](OCc2ccccc2)C[C@H]1C(=O)O)C(=O)O` [1n], 26.2%.
For the molecule `N[C@@H](CCC(=O)N1C[C@H](O)C[C@H]1C(=O)O)C(=O)O` [1c], the remaining activity at 1000 µM amounted to 73.6%.
Still for that read-out and setting: with `N[C@@H](CCC(=O)N1C[C@H](F)C[C@H]1C(=O)O)C(=O)O` [1d] the figure was 51.8%.

Staying with this assay, now noted: comparison of the 2S,4R-hydroxyproline scaffold with the other stereoisomers.
With `N[C@@H](CCC(=O)N1C[C@H](OCc2ccccc2)C[C@H]1C(=O)O)C(=O)O` [1m], the “uptake compared to structures 1n, 1o, or 1p (hydroxyproline stereoisomers)” value is “improved uptake”.

These data come from US9468693B2, “Labeled molecular imaging agents and methods of use” (GENERAL ELECTRIC COMPANY, priority 2014, dated 2016).
